Measured values taken from patent publication US20230183750A1, “HDR ENHANCERS” (OXFORD GENETICS LIMITED, priority 2020, published 2023).

Assays:
[1] = tested on: HEK293 reporter cell line; experiment: CRISPR/Cas9-based HDR assay (wtCas9 RNP, ssOligo donor, EGFP positive cells by FACS); assay type: cell-based, human; conditions: for HDR efficiency, single small molecule (FIG. 4): Example 4, first set of experiments, compared to no compound; for HDR efficiency in the initial screen with wtCas9: fold change compared to Cas9 alone, ≥20% increase (fold change ≥1.2) = positive influencer; for optimal concentration selected for further experiments: from the HDR dose dependency experiment; for concentration with the highest HDR efficiency: tested at 5, 10, 20 μM; for dose dependency of HDR efficiency (FIG. 3): three concentrations (low, medium, high) per inhibitor
Method: More specifically, an HDR assay using a HEK reporter cell line containing truncated EGFP may be used. These cells may be transfected with a transfection complex containing the CRISPR endonuclease and a donor sequence. Cas9 RNPs may be prepared by following the manufacturers' guidelines. The transfection complex may be prepared by adding Cas9 RNP or Cas9 nickase RNP, along with ssOligo donor and lipofectamine 2000 in Optimem. Reagents should be mixed well and incubated for 20 mins. After 20 mins, 50 μl of transfection complex (at an optimal concentration—see the Examples herein) may be transferred in a 96 well plate and 50 μl HEK293 reporter cell line suspension (9×10^5 cells/ml) added followed by 50 μl of cell culture medium containing appropriate concentration(s) of inhibitor(s). Cells may be incubated at 37° C. in a CO2 incubator for 24 hours and then inhibitor-containing media should be replaced with fresh media without inhibitor. Cells are then further incubated for 48 hours. After 48 hours, cells may be trypsinized and resuspended in PBS containing 10% FBS. Samples may be run on FACS and the percentage of EGFP in the population measured. Presence of EGFP directly correlates with HDR efficiency.
To investigate whether a knock-in truncated in HEK293 reporter cell line could be corrected by homology dependent repair, a CRISPR/Cas9-based HDR assay was used. We used ssODN as a donor template to correct the EGFP sequence and to restore functionality as ssODNs are known to be more efficient compared to the double-stranded donor for HDR based DNA repair. Briefly, cells were transfected with a wtCas9 ribonucleoprotein complex along with an oligo donor for restoring EGFP functionality. Cells were analysed by FACS 72 hours post-transfection (FIGS. 2A and 2B).
To identify the small molecules which would increases the HDR efficiency, we carried out experiments using the engineered HEK293 reporter cell line, ss-donor and wtCas9 in the presence of the inhibitors identified in Example 2. Briefly, in vitro reconstituted wtCas9 RNP with gRNA-X1 was transfected into the cells along with ssOligo donor (50 nM) in presence of the inhibitors. Inhibitor containing media was replaced with fresh media after 24 hours and cells were further incubated for 48 hours. After 48 hours cells were trypsinized and resuspended in 10% FBS containing PBS and analysed by FACS.
To understand whether increase in HDR is related to dose response, we carried out the HDR assay using three different concentrations of selected inhibitors as shown in the table below.
To investigate whether HDR efficiency would increase further by using the top hit small molecule combinations, we performed experiments using small molecule combinations for wtCas9. These combinations were selected using Design of Experiment (DoE) software. These combination experiments were carried out in 2 sets: the first set was performed in the absence of NU7441 (a known HDR enhancer); and the second set was performed in the presence of NU7441. […] In the second set of experiments, in the presence of NU7441, further increases (˜2fold) in HDR efficiency were observed compared to no NU7441 (FIG. 4). […]

HEK reporter cell line = experiment: cell-viability assay using alamar blue reagent; assay type: cell-based, human; conditions: 72 hours
Method: To investigate the effect of this library on HDR efficiency and to identify novel molecules which would increase the HDR mediated gene editing efficiency, first we carried out a cell-viability assay using the HEK reporter cell line and alamar blue reagent. The experiment was performed to rule out any toxicity associated with the small molecule library. Briefly, 3 different concentration of inhibitors (0.1 μM, 1 μM and 10 μM) were added in the cells in a 96 well plate format and plates were incubated for 72 hours. After 72 hours, the media were replaced with alamar blue containing media and the plates were further incubated for 3 hours and then read on a Fluorstar omega plate reader. The table gives the results obtained with the subsequently-selected inhibitors, together with a range of other potential inhibitors.

SMILES	HDR efficiency, single small molecule (FIG. 4) ([1]; wtCas9)	HDR efficiency at high concentration (FIG. 3) ([1]; concentration of 0.2 μM, wtCas9)	HDR efficiency in the initial screen with wtCas9 [1]	optimal concentration selected for further experiments ([1]; wtCas9)	% survival (HEK reporter cell line; 0.1 μM inhibitor)	% survival (HEK reporter cell line; 1 μM inhibitor)	% survival (HEK reporter cell line; 10 μM inhibitor)	concentration with the highest HDR efficiency ([1]; wtCas9)	dose dependency of HDR efficiency (FIG. 3) ([1]; wtCas9)	further increase in HDR efficiency in the presence of NU7441 compared to no NU7441 (FIG. 4) ([1]; Example 4, second set of experiments, wtCas9)	HDR efficiency at high concentration (FIG. 3) ([1]; concentration of 2 μM, wtCas9)
O=C(Nc1c[nH]nc1-c1nc2cc(CN3CCOCC3)ccc2[nH]1)NC1CC1 [AT9283]	increase in HDR efficiency	moderated decreases in HDR efficiency	increase the HDR efficiency	0.05 µM	81.49 ± 3.59%	69.69 ± 1.2%	7.1 ± 0.06%				
O=C1NC(=O)/C(=C/c2cccc(C(F)(F)F)c2)S1 [SMI-4a]	increase in HDR efficiency		increase the HDR efficiency	20 µM	105.2 ± 0.07%	103.18 ± 5.38%	99.85 ± 1.22%	20 µM	dose-dependent increases in HDR efficiency		
O=c1cc(N2CCOCC2)oc2c1ccc1ccccc12 [NU7026]			increase the HDR efficiency		100.08 ± 4.01%	100.14 ± 4.13%	83.17 ± 1.44%				
CCS(=O)(=O)c1cccc(-c2cc(C(=O)NC3CCN(C)CC3)c(C)c3[nH]c4ncc(C)cc4c23)c1 [TAK-901]					88.9 ± 1.18%	36.24 ± 0.88%	5.65 ± 0.08%				
O=C([C@H](Cc1cccc(C(F)(F)F)c1)NS(=O)(=O)c1cc(F)c2c(c1)CCNC2)N1CCCC1 [S-PFI-2]	increase in HDR efficiency		increase the HDR efficiency	20 µM	99.98 ± 3.25%	115.11 ± 2.47%	94.25 ± 8.54%	20 µM	dose-dependent increases in HDR efficiency		
O=c1cc(N2CCOCC2)oc2c(-c3cccc4c3sc3ccccc34)cccc12 [NU7441]	increase in HDR efficiency		increase the HDR efficiency	1 µM	103.58 ± 4.44%	88.88 ± 3.55%	22.95 ± 0.98%		highest HDR efficiency	~2 fold	moderate increases
Cc1cc(CN2CCN(c3c(Br)cnc4nc(-c5ccc(N6CCN(C)CC6)cc5)[nH]c34)CC2)no1 [CCT137690]					105.48 ± 3.94%	63.37 ± 2.12%	−0.08 ± 0.1%				
